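Growth conditions: 96-well plates. Treatment: test compound, 48 hours, 5 concentrations. Analysis: linear interpolation between bracketing concentrations; unreached endpoints set to highest concentration. Abbreviation: GI50, concentration required for 50% inhibition of growth. Definition used: TGI = concentration required for complete inhibition of growth.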
What was measured:
Experiment in all cases: inhibition of tumour cell growth, NCI panel, 48 h
KM12 colon = system: KM12 colon
SF-539 CNS = system: SF-539 CNS
MALME-3M melanoma = system: MALME-3M melanoma
RPMI-8226 leukemia = system: RPMI-8226 leukemia
UACC-62 melanoma = system: UACC-62 melanoma
SR leukemia = system: SR leukemia
SNB-75 CNS = system: SNB-75 CNS
TK-10 renal = system: TK-10 renal
SK-MEL-5 melanoma = system: SK-MEL-5 melanoma
MDA-MB-435 = system: MDA-MB-435
SF-295 CNS = system: SF-295 CNS
RXF 393 renal = system: RXF 393 renal
MCF7 breast = system: MCF7 breast
A498 renal = system: A498 renal
UACC-257 melanoma = system: UACC-257 melanoma
DU-145 prostate = system: DU-145 prostate
OVCAR-3 ovarian = system: OVCAR-3 ovarian
CAKI-1 renal = system: CAKI-1 renal
MDA-MB-468 breast = system: MDA-MB-468 breast
CCRF-CEM leukemia = system: CCRF-CEM leukemia
SK-OV-3 ovarian = system: SK-OV-3 ovarian
EKVX NSCLC = system: EKVX NSCLC
HCC-2998 colon = system: HCC-2998 colon
SK-MEL-2 melanoma = system: SK-MEL-2 melanoma
SN12C renal = system: SN12C renal
HS 578T breast = system: HS 578T breast
OVCAR-5 ovarian = system: OVCAR-5 ovarian
LOX IMVI melanoma = system: LOX IMVI melanoma
SF-268 CNS = system: SF-268 CNS
T-47D breast = system: T-47D breast
HCT-15 colon = system: HCT-15 colon
786-0 renal = system: 786-0 renal
NCI-H522 lung = system: NCI-H522 lung
MOLT-4 leukemia = system: MOLT-4 leukemia
U251 CNS = system: U251 CNS
OVCAR-4 ovarian = system: OVCAR-4 ovarian
OVCAR-8 ovarian = system: OVCAR-8 ovarian
HOP-62 NSCLC = system: HOP-62 NSCLC
A549 NSCLC = system: A549 NSCLC
HT29 colon = system: HT29 colon
COLO 205 colon = system: COLO 205 colon
SNB-19 CNS = system: SNB-19 CNS
SW-620 colon = system: SW-620 colon
ACHN renal = system: ACHN renal
HCT-116 colon = system: HCT-116 colon
NCI-H23 lung = system: NCI-H23 lung
UO-31 renal = system: UO-31 renal
NCI-H226 lung = system: NCI-H226 lung
NCI-H460 lung = system: NCI-H460 lung
K-562 leukemia = system: K-562 leukemia
M14 melanoma = system: M14 melanoma
PC-3 prostate = system: PC-3 prostate
MDA-MB-231 breast = system: MDA-MB-231 breast
SK-MEL-28 melanoma = system: SK-MEL-28 melanoma
IGROV1 ovarian = system: IGROV1 ovarian
BT-549 breast = system: BT-549 breast
HL-60(TB) leukemia = system: HL-60(TB) leukemia
HOP-92 NSCLC = system: HOP-92 NSCLC

Work on `Cn1cc(-c2cc(N)n3nc(-c4c[nH]c5ccc(Br)cc45)cc3n2)c2cccnc21` yielded a GI50 (KM12 colon) of 1.78 µM, a TGI (KM12 colon) of 3.35 µM and a GI50 (SF-539 CNS) of 1.58 µM. The TGI (SF-539 CNS) was 2.97 µM, the GI50 (MALME-3M melanoma) was 1.52 µM and the TGI (MALME-3M melanoma) was 2.91 µM. The GI50 (RPMI-8226 leukemia) was 4.04 µM, the TGI (RPMI-8226 leukemia) was > 100 µM and the GI50 (UACC-62 melanoma) was 1.73 µM. For the same compound, the TGI (UACC-62 melanoma) was 3.17 µM, the GI50 (SR leukemia) was 2.72 µM and the TGI (SR leukemia) was > 100 µM. The GI50 (SNB-75 CNS) was 1.29 µM, the TGI (SNB-75 CNS) was 2.57 µM and the GI50 (TK-10 renal) was 2.11 µM. For the same compound, the TGI (TK-10 renal) was 7.4 µM, the GI50 (SK-MEL-5 melanoma) was 1.75 µM and the TGI (SK-MEL-5 melanoma) was 3.28 µM. For the same compound, the GI50 (MDA-MB-435) was 1.7 µM, the TGI (MDA-MB-435) was 3.16 µM and the GI50 (SF-295 CNS) was 2.2 µM. The TGI (SF-295 CNS) was 5.09 µM, the GI50 (RXF 393 renal) was 1.65 µM and the TGI (RXF 393 renal) was 3.24 µM. The GI50 (MCF7 breast) was 3.01 µM, the TGI (MCF7 breast) was > 100 µM and the GI50 (A498 renal) was 1.72 µM. It also gave a TGI (A498 renal) of 3.63 µM, a GI50 (UACC-257 melanoma) of 1.75 µM and a TGI (UACC-257 melanoma) of 3.48 µM. The GI50 (DU-145 prostate) was 1.82 µM, the TGI (DU-145 prostate) was 3.4 µM and the GI50 (OVCAR-3 ovarian) was 1.67 µM. For the same compound, the TGI (OVCAR-3 ovarian) was 3.12 µM, the GI50 (CAKI-1 renal) was 1.8 µM and the TGI (CAKI-1 renal) was 3.86 µM. It also gave a GI50 (MDA-MB-468 breast) of 1.59 µM, a TGI (MDA-MB-468 breast) of 3.24 µM and a GI50 (CCRF-CEM leukemia) of 3.84 µM. The TGI (CCRF-CEM leukemia) was > 100 µM, the GI50 (SK-OV-3 ovarian) was 22.8 µM and the TGI (SK-OV-3 ovarian) was 44.4 µM. For the same compound, the GI50 (EKVX NSCLC) was 2.34 µM, the TGI (EKVX NSCLC) was 6.04 µM and the GI50 (HCC-2998 colon) was 1.82 µM. The TGI (HCC-2998 colon) was 3.27 µM, the GI50 (SK-MEL-2 melanoma) was 17.2 µM and the TGI (SK-MEL-2 melanoma) was 40 µM. It also gave a GI50 (SN12C renal) of 1.82 µM, a TGI (SN12C renal) of 3.72 µM and a GI50 (HS 578T breast) of 2.32 µM. For the same compound, the TGI (HS 578T breast) was 5.61 µM, the GI50 (OVCAR-5 ovarian) was 1.41 µM and the TGI (OVCAR-5 ovarian) was 3.24 µM. The GI50 (LOX IMVI melanoma) was 1.82 µM, the TGI (LOX IMVI melanoma) was 3.21 µM and the GI50 (SF-268 CNS) was 2.03 µM. The TGI (SF-268 CNS) was 4.71 µM, the GI50 (T-47D breast) was 2.03 µM and the TGI (T-47D breast) was 5.07 µM. The GI50 (HCT-15 colon) was 2.71 µM, the TGI (HCT-15 colon) was 8.28 µM and the GI50 (786-0 renal) was 1.57 µM. The TGI (786-0 renal) was 3 µM, the GI50 (NCI-H522 lung) was 1.85 µM and the TGI (NCI-H522 lung) was 3.54 µM.

Compound `Cc1cc(C(F)(F)F)ccc1C(=O)Nc1sc2c(c1C#N)CCC(=O)C2` has a GI50 (KM12 colon) of 1.08 µM, a TGI (KM12 colon) of 5 µM and a GI50 (MOLT-4 leukemia) of 0.619 µM. It also gave a TGI (MOLT-4 leukemia) of 12.3 µM, a GI50 (U251 CNS) of 2.25 µM and a TGI (U251 CNS) of 13.2 µM. It also gave a GI50 (OVCAR-4 ovarian) of 1.25 µM, a TGI (OVCAR-4 ovarian) of 2.94 µM and a GI50 (OVCAR-8 ovarian) of 1.8 µM. It also gave a TGI (OVCAR-8 ovarian) of 27.3 µM, a GI50 (SF-539 CNS) of 0.496 µM and a TGI (SF-539 CNS) of 1.9 µM. The GI50 (MALME-3M melanoma) was 1.45 µM, the TGI (MALME-3M melanoma) was 3.01 µM and the GI50 (HOP-62 NSCLC) was 3.1 µM. For the same compound, the TGI (HOP-62 NSCLC) was > 100 µM, the GI50 (UACC-62 melanoma) was 1.22 µM and the TGI (UACC-62 melanoma) was 2.67 µM. For the same compound, the GI50 (A549 NSCLC) was 3.42 µM, the TGI (A549 NSCLC) was 23.1 µM and the GI50 (SNB-75 CNS) was 1.03 µM. For the same compound, the TGI (SNB-75 CNS) was 6.74 µM, the GI50 (TK-10 renal) was 1.59 µM and the TGI (TK-10 renal) was 24.9 µM. For the same compound, the GI50 (HT29 colon) was 0.973 µM, the TGI (HT29 colon) was 3.43 µM and the GI50 (SK-MEL-5 melanoma) was 1.54 µM. The TGI (SK-MEL-5 melanoma) was 2.96 µM, the GI50 (COLO 205 colon) was 2.03 µM and the TGI (COLO 205 colon) was 3.68 µM. The GI50 (MDA-MB-435) was 1.88 µM, the TGI (MDA-MB-435) was 4.34 µM and the GI50 (SNB-19 CNS) was 3.91 µM. The TGI (SNB-19 CNS) was > 100 µM, the GI50 (SF-295 CNS) was 2.01 µM and the TGI (SF-295 CNS) was 5.91 µM. The GI50 (RXF 393 renal) was 0.659 µM, the TGI (RXF 393 renal) was 3.09 µM and the GI50 (MCF7 breast) was 1.78 µM. The TGI (MCF7 breast) was 11.3 µM, the GI50 (SW-620 colon) was 0.504 µM and the TGI (SW-620 colon) was 2.57 µM. The GI50 (A498 renal) was 23.2 µM, the TGI (A498 renal) was 93.5 µM and the GI50 (ACHN renal) was 1.09 µM. It also gave a TGI (ACHN renal) of 2.57 µM, a GI50 (UACC-257 melanoma) of 1.9 µM and a TGI (UACC-257 melanoma) of 5.28 µM. The GI50 (DU-145 prostate) was 3.57 µM, the TGI (DU-145 prostate) was > 100 µM and the GI50 (OVCAR-3 ovarian) was 1.4 µM. The TGI (OVCAR-3 ovarian) was 3.24 µM, the GI50 (HCT-116 colon) was 0.411 µM and the TGI (HCT-116 colon) was 10.3 µM. For the same compound, the GI50 (CAKI-1 renal) was 1.32 µM, the TGI (CAKI-1 renal) was 2.95 µM and the GI50 (MDA-MB-468 breast) was 1.54 µM. The TGI (MDA-MB-468 breast) was 5.04 µM, the GI50 (NCI-H23 lung) was 1.71 µM and the TGI (NCI-H23 lung) was 6.5 µM. For the same compound, the GI50 (UO-31 renal) was 1.12 µM, the TGI (UO-31 renal) was 2.38 µM and the GI50 (NCI-H226 lung) was 2.83 µM. For the same compound, the TGI (NCI-H226 lung) was 18.5 µM, the GI50 (SK-OV-3 ovarian) was 9.21 µM and the TGI (SK-OV-3 ovarian) was 28.5 µM. It also gave a GI50 (NCI-H460 lung) of 3.16 µM, a TGI (NCI-H460 lung) of 69.6 µM and a GI50 (EKVX NSCLC) of 2.63 µM. The TGI (EKVX NSCLC) was 12 µM, the GI50 (K-562 leukemia) was 0.24 µM and the TGI (K-562 leukemia) was > 100 µM. The GI50 (HCC-2998 colon) was 2.73 µM, the TGI (HCC-2998 colon) was 9.21 µM and the GI50 (M14 melanoma) was 1.39 µM. For the same compound, the TGI (M14 melanoma) was 3.61 µM, the GI50 (SN12C renal) was 1.64 µM and the TGI (SN12C renal) was 10.9 µM. The GI50 (PC-3 prostate) was 0.333 µM, the TGI (PC-3 prostate) was 3.28 µM and the GI50 (HS 578T breast) was 2.24 µM. It also gave a TGI (HS 578T breast) of 22.6 µM, a GI50 (OVCAR-5 ovarian) of 2.02 µM and a TGI (OVCAR-5 ovarian) of 5.94 µM. It also gave a GI50 (LOX IMVI melanoma) of 1.06 µM, a TGI (LOX IMVI melanoma) of 3.73 µM and a GI50 (SF-268 CNS) of 2.83 µM. It also gave a TGI (SF-268 CNS) of 20.5 µM, a GI50 (MDA-MB-231 breast) of 1.56 µM and a TGI (MDA-MB-231 breast) of 3.39 µM. The GI50 (SK-MEL-28 melanoma) was 1.24 µM, the TGI (SK-MEL-28 melanoma) was 2.62 µM and the GI50 (T-47D breast) was 0.453 µM. It also gave a TGI (T-47D breast) of 2.52 µM, a GI50 (IGROV1 ovarian) of 3.42 µM and a TGI (IGROV1 ovarian) of 13.5 µM. For the same compound, the GI50 (HCT-15 colon) was 0.552 µM, the TGI (HCT-15 colon) was 2.36 µM and the GI50 (786-0 renal) was 3.51 µM. The TGI (786-0 renal) was > 100 µM, the GI50 (BT-549 breast) was 0.591 µM and the TGI (BT-549 breast) was 3.04 µM. For the same compound, the GI50 (HL-60(TB) leukemia) was 0.448 µM, the TGI (HL-60(TB) leukemia) was 13.7 µM and the GI50 (HOP-92 NSCLC) was 0.957 µM. For the same compound, the TGI (HOP-92 NSCLC) was 2.62 µM, the GI50 (NCI-H522 lung) was 0.288 µM and the TGI (NCI-H522 lung) was 1.01 µM.
